From article PMC12590356, “Novel pyrrolo[2,1-a]isoquinoline aryl ketones attenuate carbon nanotube-induced acute lung injury through NF-κB pathway inhibition” (RSC Advances, 2025)

How the values were obtained:
IL-6 [1] = experiment: IL-6 in BALF of ALI mice (ELISA); type: in vivo, C57BL/6 mice; details: SWCNT-induced ALI mice, 50 mg per kg dose
Experimental: (§1) To confirm the in vivo inhibitory effects of 3g and 3k, we examined the levels of pro-inflammatory cytokines in bronchoalveolar lavage fluid (BALF) from ALI mice.
(§2) Based on the results of the previous in vitro experiments, 3g and 3k were chosen for animal experiments. 3g was dissolved in 5% DMSO and 3k was dissolved in 0.5% sodium carboxymethyl cellulose (CMC-Na). Male C57BL/6 mice were randomly divided into four groups of ten animals each: CON, single-walled carbon nanotubes (SWCNT) model, 3k (50 mg kg^−1) + SWCNT, 3g (50 mg kg^−1) + SWCNT. The SWCNT model group was administered a one-time tracheal drip of 50 μL of SWCNT suspension containing 40 μg of SWCNT (approximately 1.86 mg per kg body weight) per mouse to model ALI. A blank tracheal drip of PBS was administered to the negative control. 3k + SWCNT and 3g + SWCNT groups were administered 3k or 3g of 50 mg per kg body weight once a day for 3d. The animals in the CON group received the same volume of 0.5% CMC-Na. The 1st dose was administered 1 h before modeling to avoid excessive damage to mice. The control and model groups were injected intraperitoneally with a blank solvent. […]
(§3) The collected bronchoalveolar lavage fluid (BALF) was centrifuged to obtain the supernatant. The concentrations of TNF-α and IL-6 in BALF were determined using ELISA. […]

[2] = CCK8 cell viability (cytotoxicity) assay; type: cell-based, murine; details: mouse, RAW264.7 cells, means ± SD (n = 3)
Experimental: The toxic effect of synthesized compounds was evaluated on RAW264.7 cells utilizing a CCK8 assay kit.
RAW264.7 cells were seeded in 96-well plates and incubated with various compounds, each at a uniform concentration of 50 μM, for 24 h. Following this incubation, CCK8 was added to the 96-well plates and incubated at 37 °C for 1 h. The control group was cultivated solely in fresh medium. The absorbance at 450 nm was quantified using an enzyme marker.

[3] = test system: phosphorylated IκB and p65; experiment: Western blot of NF-κB pathway in lung tissues; type: in vivo, C57BL/6 mice; details: SWCNT-induced ALI mice, 50 mg/kg once a day for 3 d
Text: The expression levels of phosphorylated IκB and p65 were meticulously examined. To further delve into and evaluate the impact of compounds 3g and 3k on the NF-κB signaling pathway within SWCNT-induced ALI murine models, western blotting analysis was used to comprehensively assess the activation status of the NF-κB pathway in lung tissues.
Collectively, novel pyrrolo[2,1-a]isoquinoline aryl ketones represent promising anti-inflammatory candidates for SWCNT-induced pulmonary injury, functioning through NF-κB pathway regulation.
Based on the results of the previous in vitro experiments, 3g and 3k were chosen for animal experiments. 3g was dissolved in 5% DMSO and 3k was dissolved in 0.5% sodium carboxymethyl cellulose (CMC-Na). Male C57BL/6 mice were randomly divided into four groups of ten animals each: CON, single-walled carbon nanotubes (SWCNT) model, 3k (50 mg kg^−1) + SWCNT, 3g (50 mg kg^−1) + SWCNT. The SWCNT model group was administered a one-time tracheal drip of 50 μL of SWCNT suspension containing 40 μg of SWCNT (approximately 1.86 mg per kg body weight) per mouse to model ALI. […]
Lung tissue samples were collected from each mouse. […] The protein concentration was accurately determined using the BCA method. […] ECL chemiluminescent reagent was used to visualize the protein bands, and the gray values of the bands were analyzed using ImageJ software.

TNF-α = TNF-α in BALF of ALI mice (ELISA); type: in vivo, C57BL/6 mice; details: SWCNT-induced ALI mice, 50 mg per kg dose
Experimental: as §1, §2, §3

IL-6 [4] = experiment: IL-6 secretion in LPS-stimulated RAW264.7 macrophages (ELISA); type: cell-based, murine; details: LPS (0.5 μg/mL)-stimulated RAW264.7 cells, 5, 20, 40 μM, 24 h
Experimental: To elucidate the anti-inflammatory mechanisms underlying 3g and 3k, we conducted a comprehensive investigation into their impact on the secretion of pro-inflammatory cytokines, employing an LPS-stimulated RAW264.7 macrophage model. TNF-α and IL-6, which serve as pivotal mediators in the pathogenesis of ALI, are primarily secreted by activated alveolar macrophages, neutrophils, and lung structural cells. […] In this study, RAW264.7 cells were treated with LPS (0.5 μg mL^−1) and varying concentrations of 3g or 3k for 24 hours. […] This mechanistic understanding provides robust support for the therapeutic potential of the novel diaryl ketone scaffold in the ALI management.
Fig. 2 Compounds 3g and 3k inhibited the cytokine production of RAW264.7 cells stimulated by LPS. […] The levels of IL-6 (A) and TNF-α (B) in the culture medium were measured by ELISA kits. Data are expressed as mean ± SEM for each group of independent experiments (n = 3); *p < 0.05; **p < 0.01; ***p < 0.001 vs. model group.
Based on the initial screening results, compounds 3g and 3k were selected for further experimentation. […] The levels of TNF-α and IL-6 released into the macrophage supernatant were quantified using ELISA kits sourced from Elabscience (Wuhan, China), according to the manufacturer's guidelines.

Q: Which results are given for Cc1ccccc1C(=O)c1ccc2c3ccccc3ccn12 [3k]?
A: IL-6 level in BALF (IL-6 [1]): effectively suppressed the release of TNF-α and IL-6; viability at 24 h, 50 µM [2]: 98.8 ± 4.7%; Phosphorylated IκB and p65 levels in lung tissue [3]: substantially suppressed these phosphorylation events; TNF-α level in BALF (TNF-α): effectively suppressed the release of TNF-α; IL-6 secretion (IL-6 [4]): suppressed cytokine secretion in a dose-dependent manner

Q: With O=C(c1ccc(F)cc1)c1ccc2c3ccccc3ccn12 [3g] as the compound, how does the “IL-6 level in BALF” value (IL-6 [1]) read?
A: effectively suppressed the release of TNF-α and IL-6

Q: And the viability at 24 h, 50 µM [2]?
A: 86.5 ± 1.2%

Q: And the “Phosphorylated IκB and p65 levels in lung tissue” value [3]?
A: substantially suppressed these phosphorylation events

Q: What about the “TNF-α level in BALF” value (TNF-α) of the same compound?
A: effectively suppressed the release of TNF-α

Q: What about the IL-6 secretion (IL-6 [4]) of the same compound?
A: suppressed cytokine secretion in a dose-dependent manner
